How the values were obtained:
[1] = test system: control sera (pooled serum of ten healthy LUMC hospital workers; commercial negative donor pooled serum from the Dutch bloodbank); assay type: binding, human; parameters: Binding of Control serum LUMC to linear peptides / Binding of Control serum Blood-bank to linear peptides / Binding of Control serum LUMC to looped peptides / Binding of Control Serum Blood-Bank to Looped peptides / Binding of Control serum LUMC to linear peptides of the protein M of SARS-CoV Urbani / Binding of Control serum Blood-bank to linear peptides of the protein M of SARS-CoV Urbani / Binding of Control serum LUMC to looped peptides of the protein M of SARS-CoV Urbani / Binding of Control Serum Blood-Bank to Looped peptides of the protein M of SARS-CoV Urbani: unit not given here
[2] = test system: rabbit serum obtained by immunizing a rabbit with the SARS-CoV strain Frankfurt 1; assay type: binding; parameters: Binding of a rabbit serum to linear peptides / Binding of a rabbit serum to looped peptides / Rabbit serum linear peptides / Rabbit serum looped peptides / Binding of a rabbit serum to linear peptides of protein N of SARS-CoV Urbani (Rabbit serum linear peptides) / Binding of a rabbit serum to looped/cyclic peptides of protein N of SARS-CoV Urbani (Rabbit serum looped peptides): unit not given here
[3] = test system: recombinant human anti-SARS-CoV antibody 03-018; assay type: binding; parameters: Binding of antibody 03-018 to linear peptides of the N protein of SARS-CoV Urbani / Binding of antibody 03-018 to looped/cyclic peptides of the N protein of SARS-CoV Urbani: unit not given here
[4] = test system: antibodies in sera from SARS patients (sera 1a, 1b, 2, 6, 37, 62, London, SARS-yellow, SARS-green); assay type: binding, human; parameters: Binding of serum 6 to linear peptides of protein X1 of SARS-CoV Urbani / Binding of serum 37 to linear peptides of protein X1 of SARS-CoV Urbani / Binding of serum 6 to looped/cyclic peptide (PEPSCAN-ELISA) / Binding of serum 37 to looped/cyclic peptide (PEPSCAN-ELISA) / Binding of serum 37 to looped/cyclic peptides of protein X1 of SARS-CoV Urbani / Binding of serum 6 to linear peptides of protein X2 / Binding of serum 37 to linear peptides of protein X2 / Binding of serum 37 to looped/cyclic peptides of protein X2 of SARS-CoV Urbani / Binding of serum 6 to linear peptides of protein M of SARS-CoV Urbani / Binding of serum 37 to linear peptides of protein M of SARS-CoV Urbani / Binding of serum 6 to looped/cyclic peptides of protein M of SARS-CoV Urbani / Binding of serum 37 to looped/cyclic peptides of protein M of SARS-CoV Urbani / Binding of serum 6 to linear peptides of protein X3 of SARS-CoV Urbani / Binding of serum 37 to linear peptides of protein X3 of SARS-CoV Urbani / Binding of serum 37 to looped/cyclic peptides of protein X3 of SARS-CoV Urbani / Binding of serum 6 to linear peptides of protein X4 of SARS-CoV Urbani / Binding of serum 37 to linear peptides of protein X4 of SARS-CoV Urbani / Binding of serum 37 to looped/cyclic peptides of protein X4 of SARS-CoV Urbani / Binding of serum 6 to linear peptides of protein X5 of SARS-CoV Urbani / Binding of serum 37 to linear peptides of protein X5 of SARS-CoV Urbani / Binding of serum 37 to looped/cyclic peptides of protein X5 of SARS-CoV Urbani / Binding of serum 6 to linear peptides of protein N of SARS-CoV Urbani / Binding of serum 37 to linear peptides of protein N of SARS-CoV Urbani / Binding of serum 6 to linear peptide (PEPSCAN-ELISA) / Binding of serum 1a to looped/cyclic peptides of protein N of SARS-CoV Urbani / Binding of serum 1b to looped/cyclic peptides of protein N of SARS-CoV Urbani / Binding of serum 2 to looped/cyclic peptides of protein N of SARS-CoV Urbani / Binding of serum 6 to looped/cyclic peptides of protein N of SARS-CoV Urbani / Binding of serum 37 to looped/cyclic peptides of protein N of SARS-CoV Urbani / Binding of serum 62 to looped/cyclic peptides of protein N of SARS-CoV Urbani / Binding of serum London to looped/cyclic peptides of protein N of SARS-CoV Urbani / Binding of serum SARS-green to looped/cyclic peptides of protein N of SARS-CoV Urbani: unit not given here

GALNTPKDHIGTRNP
Binding of Control Serum Blood-Bank to Looped peptides [1]: 0.5 | Binding of Control serum Blood-bank to linear peptides [1]: 0.7 | Binding of Control serum LUMC to linear peptides [1]: 0.6 | Binding of Control serum LUMC to looped peptides [1]: 0.4 | Binding of a rabbit serum to linear peptides of protein N of SARS-CoV Urbani (Rabbit serum linear peptides) [2]: 0.2 | Binding of a rabbit serum to looped/cyclic peptides of protein N of SARS-CoV Urbani (Rabbit serum looped peptides) [2]: 0.0 | Binding of antibody 03-018 to linear peptides of the N protein of SARS-CoV Urbani [3]: 0.1 | Binding of antibody 03-018 to looped/cyclic peptides of the N protein of SARS-CoV Urbani [3]: 0.2 | Binding of serum 1a to linear peptides of protein N of SARS-CoV Urbani [4]: 0.3 | Binding of serum 1a to looped/cyclic peptides of protein N of SARS-CoV Urbani [4]: 0.2 | Binding of serum 1b to linear peptides of protein N of SARS-CoV Urbani [4]: 0.1 | Binding of serum 1b to looped/cyclic peptides of protein N of SARS-CoV Urbani [4]: 0.1 | Binding of serum 2 to linear peptides of protein N of SARS-CoV Urbani [4]: 0.2 | Binding of serum 2 to looped/cyclic peptides of protein N of SARS-CoV Urbani [4]: 0.5 | Binding of serum 6 to linear peptides of protein N of SARS-CoV Urbani [4]: 0.2 | Binding of serum 6 to looped/cyclic peptides of protein N of SARS-CoV Urbani [4]: 0.2 | Binding of serum 37 to linear peptides of protein N of SARS-CoV Urbani [4]: 0.7 | Binding of serum 37 to looped/cyclic peptides of protein N of SARS-CoV Urbani [4]: 0.5 | Binding of serum 62 to linear peptides of protein N of SARS-CoV Urbani [4]: 0.7 | Binding of serum 62 to looped/cyclic peptides of protein N of SARS-CoV Urbani [4]: 0.3 | Binding of serum London to linear peptides of protein N of SARS-CoV Urbani [4]: 0.5 | Binding of serum London to looped/cyclic peptides of protein N of SARS-CoV Urbani [4]: 0.4 | Binding of serum SARS-green to linear peptides of protein N of SARS-CoV Urbani [4]: 0.4 | Binding of serum SARS-green to looped/cyclic peptides of protein N of SARS-CoV Urbani [4]: 0.2 | Binding of serum SARS-yellow to linear peptides of protein N of SARS-CoV Urbani [4]: 0.7 | Binding of serum SARS-yellow to looped/cyclic peptides of protein N of SARS-CoV Urbani [4]: 0.2

GDGKMKELSPRWYFY
Binding of Control Serum Blood-Bank to Looped peptides [1]: 0.7 | Binding of Control serum Blood-bank to linear peptides [1]: 0.6 | Binding of Control serum LUMC to linear peptides [1]: 0.6 | Binding of Control serum LUMC to looped peptides [1]: 0.8 | Binding of a rabbit serum to linear peptides of protein N of SARS-CoV Urbani (Rabbit serum linear peptides) [2]: 0.2 | Binding of a rabbit serum to looped/cyclic peptides of protein N of SARS-CoV Urbani (Rabbit serum looped peptides) [2]: 0.6 | Binding of antibody 03-018 to linear peptides of the N protein of SARS-CoV Urbani [3]: 0.1 | Binding of antibody 03-018 to looped/cyclic peptides of the N protein of SARS-CoV Urbani [3]: 0.2 | Binding of serum 1a to linear peptides of protein N of SARS-CoV Urbani [4]: 0.2 | Binding of serum 1a to looped/cyclic peptides of protein N of SARS-CoV Urbani [4]: 0.4 | Binding of serum 1b to linear peptides of protein N of SARS-CoV Urbani [4]: 0.1 | Binding of serum 1b to looped/cyclic peptides of protein N of SARS-CoV Urbani [4]: 0.3 | Binding of serum 2 to linear peptides of protein N of SARS-CoV Urbani [4]: 0.2 | Binding of serum 2 to looped/cyclic peptides of protein N of SARS-CoV Urbani [4]: 0.6 | Binding of serum 6 to linear peptides of protein N of SARS-CoV Urbani [4]: 0.1 | Binding of serum 6 to looped/cyclic peptides of protein N of SARS-CoV Urbani [4]: 0.3 | Binding of serum 37 to linear peptides of protein N of SARS-CoV Urbani [4]: 0.5 | Binding of serum 37 to looped/cyclic peptides of protein N of SARS-CoV Urbani [4]: 0.7 | Binding of serum 62 to linear peptides of protein N of SARS-CoV Urbani [4]: 0.6 | Binding of serum 62 to looped/cyclic peptides of protein N of SARS-CoV Urbani [4]: 0.6 | Binding of serum London to linear peptides of protein N of SARS-CoV Urbani [4]: 0.4 | Binding of serum London to looped/cyclic peptides of protein N of SARS-CoV Urbani [4]: 0.5 | Binding of serum SARS-green to linear peptides of protein N of SARS-CoV Urbani [4]: 0.3 | Binding of serum SARS-green to looped/cyclic peptides of protein N of SARS-CoV Urbani [4]: 0.5 | Binding of serum SARS-yellow to linear peptides of protein N of SARS-CoV Urbani [4]: 0.6 | Binding of serum SARS-yellow to looped/cyclic peptides of protein N of SARS-CoV Urbani [4]: 0.7

GDQDLIRQGTDYKHW
Binding of Control Serum Blood-Bank to Looped peptides [1]: 0.6 | Binding of Control serum Blood-bank to linear peptides [1]: 0.9 | Binding of Control serum LUMC to linear peptides [1]: 0.8 | Binding of Control serum LUMC to looped peptides [1]: 0.5 | Binding of a rabbit serum to linear peptides of protein N of SARS-CoV Urbani (Rabbit serum linear peptides) [2]: 0.1 | Binding of a rabbit serum to looped/cyclic peptides of protein N of SARS-CoV Urbani (Rabbit serum looped peptides) [2]: 0.5 | Binding of antibody 03-018 to linear peptides of the N protein of SARS-CoV Urbani [3]: 0.1 | Binding of antibody 03-018 to looped/cyclic peptides of the N protein of SARS-CoV Urbani [3]: 0.2 | Binding of serum 1a to linear peptide (PEPSCAN-ELISA) [4]: 0.2 | Binding of serum 1a to looped/cyclic peptides of protein N of SARS-CoV Urbani [4]: 0.4 | Binding of serum 1b to linear peptide (PEPSCAN-ELISA) [4]: 0.1 | Binding of serum 1b to looped/cyclic peptides of protein N of SARS-CoV Urbani [4]: 0.2 | Binding of serum 2 to linear peptide (PEPSCAN-ELISA) [4]: 0.2 | Binding of serum 2 to looped/cyclic peptides of protein N of SARS-CoV Urbani [4]: 0.4 | Binding of serum 6 to linear peptide (PEPSCAN-ELISA) [4]: 0.3 | Binding of serum 6 to looped/cyclic peptides of protein N of SARS-CoV Urbani [4]: 0.3 | Binding of serum 37 to linear peptide (PEPSCAN-ELISA) [4]: 0.6 | Binding of serum 37 to looped/cyclic peptides of protein N of SARS-CoV Urbani [4]: 0.6 | Binding of serum 62 to linear peptide (PEPSCAN-ELISA) [4]: 0.7 | Binding of serum 62 to looped/cyclic peptides of protein N of SARS-CoV Urbani [4]: 0.5 | Binding of serum London to linear peptide (PEPSCAN-ELISA) [4]: 0.9 | Binding of serum London to looped/cyclic peptides of protein N of SARS-CoV Urbani [4]: 0.4 | Binding of serum SARS-green to linear peptide (PEPSCAN-ELISA) [4]: 0.5 | Binding of serum SARS-green to looped/cyclic peptides of protein N of SARS-CoV Urbani [4]: 0.4 | Binding of serum SARS-yellow to linear peptide (PEPSCAN-ELISA) [4]: 0.7 | Binding of serum SARS-yellow to looped/cyclic peptides of protein N of SARS-CoV Urbani [4]: 0.3

GETALALLLLDRLNQ
Binding of Control Serum Blood-Bank to Looped peptides [1]: 0.7 | Binding of Control serum Blood-bank to linear peptides [1]: 0.6 | Binding of Control serum LUMC to linear peptides [1]: 0.6 | Binding of Control serum LUMC to looped peptides [1]: 0.7 | Binding of a rabbit serum to linear peptides of protein N of SARS-CoV Urbani (Rabbit serum linear peptides) [2]: 0.2 | Binding of a rabbit serum to looped/cyclic peptides of protein N of SARS-CoV Urbani (Rabbit serum looped peptides) [2]: 0.6 | Binding of antibody 03-018 to linear peptides of the N protein of SARS-CoV Urbani [3]: 0.1 | Binding of antibody 03-018 to looped/cyclic peptides of the N protein of SARS-CoV Urbani [3]: 0.3 | Binding of serum 1a to linear peptide (PEPSCAN-ELISA) [4]: 0.2 | Binding of serum 1a to looped/cyclic peptides of protein N of SARS-CoV Urbani [4]: 0.4 | Binding of serum 1b to linear peptide (PEPSCAN-ELISA) [4]: 0.1 | Binding of serum 1b to looped/cyclic peptides of protein N of SARS-CoV Urbani [4]: 0.2 | Binding of serum 2 to linear peptide (PEPSCAN-ELISA) [4]: 0.2 | Binding of serum 2 to looped/cyclic peptides of protein N of SARS-CoV Urbani [4]: 0.4 | Binding of serum 6 to linear peptide (PEPSCAN-ELISA) [4]: 0.1 | Binding of serum 6 to looped/cyclic peptides of protein N of SARS-CoV Urbani [4]: 0.2 | Binding of serum 37 to linear peptide (PEPSCAN-ELISA) [4]: 0.5 | Binding of serum 37 to looped/cyclic peptides of protein N of SARS-CoV Urbani [4]: 0.7 | Binding of serum 62 to linear peptide (PEPSCAN-ELISA) [4]: 0.6 | Binding of serum 62 to looped/cyclic peptides of protein N of SARS-CoV Urbani [4]: 0.7 | Binding of serum London to linear peptide (PEPSCAN-ELISA) [4]: 0.5 | Binding of serum London to looped/cyclic peptides of protein N of SARS-CoV Urbani [4]: 0.5 | Binding of serum SARS-green to linear peptide (PEPSCAN-ELISA) [4]: 0.2 | Binding of serum SARS-green to looped/cyclic peptides of protein N of SARS-CoV Urbani [4]: 0.3 | Binding of serum SARS-yellow to linear peptide (PEPSCAN-ELISA) [4]: 0.6 | Binding of serum SARS-yellow to looped/cyclic peptides of protein N of SARS-CoV Urbani [4]: 0.6

Reference: patent publication US20070128217A1 (priority 2003, published 2007)
